Results taken from the OPERA property sets (Mansouri et al. 2018).

SMILES	logP
CC(C)NCC(O)COc1cccc2c1N(C(=O)c1cccnc1)CCC2 (configuration not stated)	1.63
CC(=O)Oc1c(C)cc(OCC(O)CNC(C)C)c(C)c1C (configuration not stated)	2.66
CC(C)NCCCC1(C(N)=O)c2ccccc2-c2ccccc21	3.11
CCN1CCCC1CNC(=O)c1cc(S(=O)(=O)CC)ccc1OC (configuration not stated)	1.06
C=CCN1CCCC1CNC(=O)c1cc(S(N)(=O)=O)cc(OC)c1OC (configuration not stated)	1.47
C=CCN1CCCC1CNC(=O)c1cc2nn[nH]c2cc1OC (configuration not stated)	1.79
CCN1CCCC1CNC(=O)c1cc(S(=O)(=O)CC)c(N)cc1OC (configuration not stated)	1.1
CN1CCN(CCCN2c3ccccc3Sc3ccccc32)CC1	4
CC(C)(C)c1cc(C(O)CCC2CCNCC2)c2ccccc2n1 (configuration not stated)	3.63
O=C(NCC1CCCCN1)c1cc(OCC(F)(F)F)ccc1OCC(F)(F)F (configuration not stated)	3.78
CC(C)(C)NCC(O)COc1ccccc1C#N (configuration not stated)	1.6
CNC(=O)Nc1c(OCCN2CCCC2)c(OC)c2occc2c1OC	1.38
